Laboratory results as given in PMC10477861, “Efficient Mining of Anticancer Peptides from Gut Metagenome” (Advanced Science, 2023).
Where no end group is shown, it is not given here.

Columns and labels:
LCC = test: MTT primary screening of anticancer activity, LCC; type: cell-based; settings: 25 µM pACP, 24 h, maintenance medium 1% FBS, ratio of viability to vehicle (PBS), at least three technical repetitions
Method in brief: (§1)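 MTT read-out of cell survival after a 24 h peptide exposure at 25 µM final c[…]ntration. Medium was switched to 1% FBS maintenance medium at treatment, with cultures at 60% confluence.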

BT474 = test: MTT primary screening of anticancer activity, BT474; type: cell-based; settings: 25 µM pACP, 24 h, maintenance medium 1% FBS, ratio of viability to vehicle (PBS), at least three technical repetitions
Method in brief: as §1

MDA-MB-468 = test: MTT primary screening of anticancer activity, MDA-MB-468; type: cell-based; settings: 25 µM pACP, 24 h, maintenance medium 1% FBS, ratio of viability to vehicle (PBS), at least three technical repetitions
Method in brief: as §1

tumor-free mice = test: Acute toxicity in tumor-free mice; type: in vivo; settings: for growth rate of body weight: after injection into the abdomen at 50 mg kg-1, gradually recovered over the next five days; for symptoms of illness or body weight loss, acute toxicity: injected into the abdomen at 2, 10 and 50 mg kg-1 over three days, up to 50 mg kg-1
Method: (§2) Furthermore, we investigated the safety of pACP2283 and pACP1780 both in vivo and in vitro. […] Additionally, we conducted an acute toxicity experiment in tumor‐free mice by administering pACPs with increasing concentrations into the abdomen. […] This temporary decrease in body weight growth rate may be attributed to the high concentrations of pACPs, which temporarily disturbed the mice's homeostasis.
(§3) To assess the toxicity of pACP1780 and pACP2283 at the cellular level, HEK293 cells were grown to 60% confluence in complete medium (10% FBS) for 24 h, and then treated with increasing concentrations (1.5, 3, 6, 12.5, 25, 50, and 100 µM) of each pACPs in maintenance medium (1% FBS) for 24 h. The viability of HEK293 cells was determined using the MTT Cell Proliferation and Cytotoxicity Assay Kit following the manufacturer's instructions. For acute toxicity in tumor‐free mice, the pACPs were injected into the abdomen at increasing concentrations of 2, 10, and 50 mg kg^−1 of mouse weight over three days, and the body weights were recorded throughout the process.

CT26 = test: MTT concentration gradient and CC50 against CT26; type: cell-based, Murine; settings: CT26 cells, calculated with aatbio IC50 calculator from the concentration gradient
Method: To evaluate the translational relevance of our methodology, we selected these two pACPs for in vivo studies. […] Subcutaneous tumors were established using CT26 cells in athymic nude mice, and the animals were randomized to receive two intratumoral injections of 0.80 mg kg^−1 pACP2283, 0.51 mg kg^−1 pACP1780, or PBS control on day 0 and day 2. The dosage of pACPs was calculated as five times the CC50 of each compound in CT26 cells. Tumor size was monitored daily for six days (Figure 3c).
To evaluate the activity of the 40 potentially effective pACPs, a panel of 16 cancer cell lines was treated, including human CRC cell lines (HT29, Caco‐2, HCT116). Details of the cell lines used, respective media, and culture conditions were presented in Table S1 (Supporting Information). Once the cells reached 60% confluence, it was incubated with each candidate peptide at a concentration of 25 µM pACPs for 24 h. Concurrently, the complete medium was replaced with a maintenance medium containing only 1% FBS. Subsequently, the viability of each cell line using the MTT Cell Proliferation and Cytotoxicity Assay Kit according to the manufacturer's instructions was assessed. […] For the CRC cell line CT26, it was calculated the CC50 value using two peptides (pACP1780 and pACP2283) with relevant data presented in Table S6 (Supporting Information). […]

MDA-MB-436 = test: MTT primary screening of anticancer activity, MDA-MB-436; type: cell-based; settings: 25 µM pACP, 24 h, maintenance medium 1% FBS, ratio of viability to vehicle (PBS), at least three technical repetitions
Method in brief: as §1

HCT116 = test: MTT primary screening of anticancer activity, HCT116; type: cell-based, Human; settings: 25 µM pACP, 24 h, maintenance medium 1% FBS, ratio of viability to vehicle (PBS), at least three technical repetitions
Method in brief: as §1

EFM192A = test: MTT primary screening of anticancer activity, EFM192A; type: cell-based; settings: 25 µM pACP, 24 h, maintenance medium 1% FBS, ratio of viability to vehicle (PBS), at least three technical repetitions
Method in brief: as §1

HEK293 cells = test: Toxicity to HEK293 cells (MTT); type: cell-based; settings: 1.5-100 µM pACP, 24 h, maintenance medium 1% FBS
Method: as §2, §3

CT26 cells = test: Transmission electron microscopy of treated CT26 cells; type: cell-based, Murine; settings: 10× CC50, two hours, triplicate
Method: To explore the anticancer effects of pACP2283 and pACP1780 at the cellular level, we co‐cultured confluent CT26 cells with these pACPs.
Experiments were performed in triplicate with similar results, and a representative figure is shown. c) CD results for the two selected ACPs and the corresponding proportions of secondary structures calculated from CD data using CDNN. Purple represents the water phase, blue represents the represents the peptide mixed with a 20‐fold POPC lipid mixture, and grey represents the peptide mixed with a 20‐fold POPC+POPS lipid mixture.
First, CT26 cancer cells were treated with peptides pACP1780 and pACP2283 for two hours. The digested CT26 cancer cells were then resuspended in double‐strength fixative, which consisted of 2% (w/v) paraformaldehyde and 2.5% (v/v) glutaraldehyde in 10 mM HEPES buffer (pH 7.0). Subsequently, the cells were incubated for 2 h at room temperature on a roller and stored at 4°C. Afterward, the fixed cells were pre‐embedded with agar, subjected to four washes with 5 mM HEPES buffer (pH 7.0) (5 min per wash), and post‐fixed with 1% osmium tetroxide (OsO4) for 30 min. Following post‐fixation, the specimens were rinsed twice with water and dehydrated using an acetone series (5 min each; 30%, 50%, 70%, 85%, 90%, 3×5 min 100%). […]

RRFAWIGKLQSRKVRNNIRQYRTKIVRQMRRQIFRQMKQKAE [pACP1780]
Survival rate of cancer cells in primary screening (LCC): 0.47 | Survival rate of cancer cells in primary screening (BT474): 0.03 | Survival rate of cancer cells in primary screening (MDA-MB-468): 0.19 | growth rate of body weight (tumor-free mice): slight decrease | symptoms of illness or body weight loss, acute toxicity (tumor-free mice): no significant symptoms of illness or body weight loss | CC50 (CT26): 6.23 µM | Survival rate of cancer cells in primary screening (MDA-MB-436): 0.00535 | Survival rate of cancer cells in primary screening (HCT116): 0.29 | Survival rate of cancer cells in primary screening (EFM192A): 0.01 | toxicity to HEK293 cells (HEK293 cells): no toxicity to HEK293 cells | cell membranes by transmission electron microscopy (CT26 cells): disintegrated cell membranes

WWRRAERSVRRFFGTPIGPFPEIFGRRKAHKKKIIAKFDSVNG [pACP2283]
Survival rate of cancer cells in primary screening (LCC): 0.49 | Survival rate of cancer cells in primary screening (BT474): 0.02 | Survival rate of cancer cells in primary screening (MDA-MB-468): 0.09 | growth rate of body weight (tumor-free mice): slight decrease | symptoms of illness or body weight loss, acute toxicity (tumor-free mice): no significant symptoms of illness or body weight loss | CC50 (CT26): 10.56 µM | Survival rate of cancer cells in primary screening (MDA-MB-436): 0.00645 | Survival rate of cancer cells in primary screening (HCT116): 0.0645 | Survival rate of cancer cells in primary screening (EFM192A): 0.15 | toxicity to HEK293 cells (HEK293 cells): no toxicity to HEK293 cells | cell membranes by transmission electron microscopy (CT26 cells): disintegrated cell membranes
